Results reported in publication PMC11040670, “Mechanistic and Kinetic Insights into Cellular Uptake of Biomimetic Dinitrosyl Iron Complexes and Intracellular Delivery of NO for Activation of Cytoprotective HO-1” (JACS Au, 2024).
Marks after values point to notes of the source that are not given here.

Legend:
HO-1 protein = test: ELISA of intracellular HO-1 protein in MSC; assay type: cell-based, human
Method: After the treatments of DNIC–COOH/DNIC–COOMe to the MSC cells following the procedure described above, the intracellular level of HO-1 protein in DNIC-treated MSC cells was also determined by ELISA (Abcam, Cambridge, MA) according to the manufacturers’ protocols.

[1] = NO-release reactivity of DNICs (total nitrate/nitrite assay); assay type: physicochemical; conditions: dinuclear DNIC 25 μM, phosphate buffer (pH 7.4), no additive, normoxia, 37 °C
Method: The NO-release reactivity of DNICs in 50 mM potassium phosphate buffer (pH 7.4) under normoxia condition at 37 °C was investigated using Nitrate/Nitrite Colorimetric Assay Kit (Item No. 780001, Cayman). After addition of 10 μL of 100 mM stock solution of DNIC–COOH (or DNIC–COOMe) in DMSO to 990 μL of 50 mM potassium phosphate buffer (pH 7.4), 25 μM of DNIC–COOH (or DNIC–COOMe) was prepared by the addition of 0.125 mL of this 1 mM solution of DNIC–COOH (or DNIC–COOMe) to 4.875 mL of 50 mM potassium phosphate buffer (pH 7.4). This solution was incubated at 37 °C under normoxia condition for 0, 1, 2, 4, 8, 24, 48, and 72 h, respectively. Then, 40 μL of the solution was collected to assess the release of NO using a Nitrate/Nitrite Colorimetric Assay Kit (Item No. 780001, Cayman). After each 40 μL aliquot of the aqueous solution was mixed with 40 μL of kit assay buffer, 10 μL of Enzyme Cofactor Mixture (Item No. 780012) and 10 μL of nitrate reductase mixture (Item No. 780010) were added before this mixture solution was incubated at room temperature for 1 h. […] The absorbance at 540 nm was then recorded using a microplate reader (SpectraMax iD3, Molecular Devices, San Jose, CA) with a reference wavelength of 800 nm. […]

MSC/N2a/HCEC = test: Intracellular release of NO, stated jointly for MSC/N2a/HCEC; assay type: cell-based
Method: Intracellular release of NO by DNIC–COOH was validated using the fluorescence probe 4-amino-5-methylamino-2′,7′-difluorofluorescein diacetate (DAF-FM) in combination with fluorescence analysis techniques. Briefly, the MSC cells (or N2a and HCEC cells) were seeded onto a 96-well black plate at a density of 6 × 10^3 cells/well (or 1 × 10^4 cells/well for N2a and 8 × 10^3 cells/well for HCEC cells) and incubated at 37 °C overnight. On the next day, the MSC cells were first treated with 10 μM of DAF-FM (or 5 μM for N2a and HCEC cells) and incubated at 37 °C for 0.5 h. […] Fluorescence intensity of the cells was then recorded using a microplate reader (SpectraMax iD3, Molecular Devices, San Jose, CA) with an excitation wavelength at 485 nm and an emission wavelength at 525 nm. Three independent experiments were executed to measure the time-dependent change of average fluorescence intensity. Time-dependent change of average fluorescence intensity for the MSC/N2a/HCEC cells with sequential treatment of DAF-FM (10 μM for MSC cells, 5 μM for N2a cells, 5 μM for HCEC cells; 0.5 h) and DNIC–COOMe (2.5 μM for MSC cells, 10 μM for N2a cells, 1 μM for HCEC cells) was determined in a similar manner.

Compound	expression of HO-1 protein (HO-1 protein; at 8 h, 100 μM DNIC–COOH)	t1/2 for release of NO from DNICs [1]	tmax for intracellular release of free NO (MSC/N2a/HCEC)	expression of HO-1 protein (HO-1 protein; at 6 h, 2.5 μM DNIC–COOMe)
O=[N][Fe]1([N]=O)[SH](CCC(=O)O)[Fe]([N]=O)([N]=O)[SH]1CCC(=O)O (stereo not drawn) [DNIC–COOH, [(NO)2Fe(μ-SCH2CH2COOH)2Fe(NO)2]]	32.0 ± 4.4 fold	10.7 ± 1.4 ^e h	4 to 6 h	–
COC(=O)CC[SH]1[Fe]([N]=O)([N]=O)[SH](CCC(=O)OC)[Fe]1([N]=O)[N]=O (stereo not drawn) [DNIC–COOMe, [(NO)2Fe(μ-SCH2CH2COOCH3)2Fe(NO)2]]	–	9.1 ± 0.6 ^e h	1 to 2 h	8.1 ± 0.9 fold
